In one data set the target is T1, Acetylcholinesterase (Rattus norvegicus, UniProt P37136).
T1 sequence (P37136 whole entry): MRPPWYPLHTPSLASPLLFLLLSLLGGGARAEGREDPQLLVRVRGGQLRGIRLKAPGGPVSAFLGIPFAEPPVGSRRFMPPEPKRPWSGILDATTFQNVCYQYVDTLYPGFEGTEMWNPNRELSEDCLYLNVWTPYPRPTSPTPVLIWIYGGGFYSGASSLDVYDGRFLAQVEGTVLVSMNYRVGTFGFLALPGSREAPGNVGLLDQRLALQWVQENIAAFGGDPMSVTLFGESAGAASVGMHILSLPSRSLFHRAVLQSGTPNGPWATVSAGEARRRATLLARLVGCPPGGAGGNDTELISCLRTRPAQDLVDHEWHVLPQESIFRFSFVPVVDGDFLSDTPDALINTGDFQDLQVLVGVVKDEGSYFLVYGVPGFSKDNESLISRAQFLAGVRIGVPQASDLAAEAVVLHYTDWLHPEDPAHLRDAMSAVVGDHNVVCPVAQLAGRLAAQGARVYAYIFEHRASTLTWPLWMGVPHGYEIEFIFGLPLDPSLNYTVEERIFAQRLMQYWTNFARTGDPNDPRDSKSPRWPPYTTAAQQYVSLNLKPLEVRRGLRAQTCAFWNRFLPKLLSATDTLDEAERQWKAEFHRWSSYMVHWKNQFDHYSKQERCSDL
The data set can be described thus: Inhibition of wistar rat brain AChE using acetylthiocholine iodide as substrate preincubated for 10 mins followed by substrate addition and measured after 5 mins by DTNB reagent based spectrophotometric Ellman's method.

Data set [1] has as its system BV-2. Description: Neuroprotective activity against LPS-induced neuronal damage in mouse BV-2 cells assessed as cell viability at 1 uM preincubated with compound for 1 hrs followed by LPS addition and measured after 24 hrs by Muse cell analyzer (reference value: 79.2 +/- 1.1 %). The conditions noted are these: time 25 hrs, read-out: Activity. In kind it is functional.

Data set [2] relates to BV-2. The data set can be described thus: Antioxidant activity in LPS-induced mouse BV-2 cells assessed as reduction in ROS production at 1 uM preincubated with compound for 1 hrs followed by LPS addition and measured after 24 hrs by Muse cell analyzer relative to control. The class given is functional. Also on record: scale not given: the % may be the effect or the level left.

The subject of data set [3] is BV-2. The data set can be described thus: Neuroprotective activity against LPS-induced neuronal damage in mouse BV-2 cells assessed as increase in cell viability at 1 uM preincubated with compound for 1 hrs followed by LPS addition and measured after 24 hrs by Muse cell analyzer. As to conditions: time 25.0 hrs. The class given is functional, cell-based.
For data set [4], the system named is Caenorhabditis elegans. Description: Anti-alzheimer activity in amyloid-beta aggregation induced Caenorhabditis elegans GMC101 assessed as increase in worm motility at 10 uM administered from day 4 of adulthood and measured on day 5 to 7. The class given is functional, organism-based. The conditions noted are these: time 4.0 day.
The test system of data set [5] is Neuronal like cell. Description: Neuroprotective activity against LPS/TNF-alpha-induced damage in human neuronal like cells assessed as increase in cell proliferation at 10 uM preincubated with compounds for 24 hrs followed by compound washout and measured after 16 hrs of LPS/TNF-alpha addition by MTS assay. The class given is functional, cell-based.
Data set [6] concerns Neuronal like cell. The data set can be described thus: Antioxidant activity in human neuronal like cells assessed as reduction in LPS/TNF-alpha-induced ROS production at 10 uM preincubated with compound for 24 hrs followed by compound washout and measured after 16 hrs of LPS/TNF-alpha addition by H2DCF-DA based fluorescence analysis. The class given is functional.
For data set [7], the target named is Amyloid-beta precursor protein (Homo sapiens) (UniProt P05067). Description: Inhibition of amyloid beta (1 to 42) (unknown origin) self aggregation at 10 uM preincubated with compound for 24 hrs followed by compound washout and measured after 24 hrs by ThT fluorescence based spectrophotometric analysis.
Sequence of Amyloid-beta precursor protein (Homo sapiens) (P05067 whole entry): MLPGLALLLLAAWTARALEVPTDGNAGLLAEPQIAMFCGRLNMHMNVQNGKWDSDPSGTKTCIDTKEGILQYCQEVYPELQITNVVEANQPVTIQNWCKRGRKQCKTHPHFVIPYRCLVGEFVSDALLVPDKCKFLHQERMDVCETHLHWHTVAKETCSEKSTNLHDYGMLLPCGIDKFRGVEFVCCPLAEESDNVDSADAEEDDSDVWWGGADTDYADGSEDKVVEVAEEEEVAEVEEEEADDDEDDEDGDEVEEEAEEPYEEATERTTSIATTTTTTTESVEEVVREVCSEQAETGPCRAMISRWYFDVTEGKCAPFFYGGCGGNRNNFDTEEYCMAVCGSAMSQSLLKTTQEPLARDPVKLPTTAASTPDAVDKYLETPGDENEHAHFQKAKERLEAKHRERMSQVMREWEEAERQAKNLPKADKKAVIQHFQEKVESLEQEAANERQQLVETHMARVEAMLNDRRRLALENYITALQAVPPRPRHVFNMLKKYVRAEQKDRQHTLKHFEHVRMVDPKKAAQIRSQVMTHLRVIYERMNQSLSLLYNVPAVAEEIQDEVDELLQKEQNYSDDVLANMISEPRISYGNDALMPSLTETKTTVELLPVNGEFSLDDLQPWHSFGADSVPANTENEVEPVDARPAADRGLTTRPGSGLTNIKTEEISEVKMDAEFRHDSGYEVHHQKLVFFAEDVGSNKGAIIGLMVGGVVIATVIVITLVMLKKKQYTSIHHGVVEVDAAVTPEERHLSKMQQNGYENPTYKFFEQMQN
Data set [8] can be described thus: Induction of H2S release in PBS at pH 7.4 assessed as H2S concentration at 1 mM measured after 30 mins in presence of L-cysteine by Apollo-4000 free radical analyzer. The class given is functional.
Data set [9] deals with Caenorhabditis elegans. The data set can be described thus: Anti-alzheimer activity in amyloid-beta aggregation induced Caenorhabditis elegans GMC101 assessed as increase in worm fitness at 10 uM administered from day 4 of adulthood and measured on day 7 relative to control. In kind it is functional. As to conditions: time 4 day.
Data set [10] relates to A549. The data set can be described thus: Induction of autophagy in human A549 cells assessed as increase in LC3-II level at >3 uM measured after 24 hrs by Western blotting analysis. The class given is functional, cell-based.
Data set [11] can be described thus: Neuroprotective activity against LPS/TNF-alpha-induced damage in human neuronal like cells assessed as restoration of cell function at 10 uM preincubated with compounds for 72 hrs followed by compound washout and measured after 16 hrs of LPS/TNF-alpha addition by MTS assay relative to control. The class given is functional.
Data set [12] has as its system Caenorhabditis elegans. The data set can be described thus: Anti-alzheimer activity in amyloid-beta aggregation induced Caenorhabditis elegans GMC101 assessed as improvement in displacement per bend of worm at 10 uM administered from day 4 of adulthood and measured on day 7. The conditions noted are these: time 4.0 day. In kind it is functional, organism-based.
In data set [13] the test system is Caenorhabditis elegans. Description: Anti-alzheimer activity in amyloid-beta aggregation induced Caenorhabditis elegans GMC101 assessed as improvement in speed of worm movement at 10 uM administered from day 4 of adulthood and measured on day 7. The conditions noted are these: time 4.0 day. In kind it is functional, organism-based.
In data set [14] the test system is A549. Description: Induction of autophagy in human A549 cells assessed as decrease in p62 level at >3 uM measured after 24 hrs by Western blotting analysis relative to control. The class given is functional. The arrangement: scale not given: the % may be the effect or the level left.
In data set [15] the test system is A549. Description: Induction of autophagy in human A549 cells transfected with LC3-GFP plasmid assessed as increase in number of LC3 puncta at >3 uM measured after 24 hrs by high-content confocal microscopic analysis. In kind it is functional, cell-based.
Data set [16] relates to A549. Description: Cytotoxicity against human A549 cells transfected with LC3-GFP plasmid assessed as decrease in cell number upto 10 uM. In kind it is toxicity, cell-based. The conditions noted are these: a549, 10 µM.

The source made the active and inactive calls. No cut-off for these calls is given here.

Regarding `CCN(C)C(=O)Oc1cccc(N=C=S)c1`, inhibition against Acetylcholinesterase was half-maximal at 870 nM (IC50). The viability at 1 µM in the data set with BV-2 [1] amounted to 85.5%. Further, the Activity with BV-2 [2] (time 25 hrs) was found to be 10%.
Take `CCN(C)C(=O)Oc1cccc(NC(=O)COc2ccc(-c3cc(=S)ss3)cc2)c1`: the IC50 against Acetylcholinesterase is 410 nM. Moreover, the result with BV-2 [3] and with BV-2 [2] (time 25.0 hrs) was inactive.
For `CCN(C)C(=O)Oc1cccc([C@H](C)N(C)C)c1` [RIVASTIGMINE], the viability at 1 µM in the data set with BV-2 [1] stood at 84.1%. For the same compound, the Activity with BV-2 [2] (time 25 hrs) is listed as roughly 10%.
With `CCN(C)C(=O)Oc1cccc(CN=C=S)c1`, the IC50 against Acetylcholinesterase is 2190 nM. Also, the viability at 1 µM in the data set on BV-2 [1] was 85.3%. The Activity in the data set with BV-2 [2] (time 25 hrs) came out at 10%.
As for `[Na+].[SH-]` [SODIUM HYDROSULFIDE], in the data set on BV-2 [1], the viability at 1 µM turned out to be 87.2%. Further, the Activity in the data set with BV-2 [2] (time 25 hrs) is recorded as 27%.
As for `CCN(C)C(=O)Oc1cccc(CCN=C=S)c1`, the IC50 against Acetylcholinesterase was determined as 1370 nM. Besides, the outcome in the data set on BV-2 [3] was inactive. The Activity with BV-2 [2] (time 25 hrs) amounted to 10%.
The compound `CCN(C)C(=O)Oc1cccc(C(N)=S)c1` gave an IC50 against Acetylcholinesterase of 440 nM. Besides, the result with Caenorhabditis elegans [4], in the data set on Neuronal like cell [5], in the data set with Neuronal like cell [6], with A549 [10], in the data set on Caenorhabditis elegans [12] and with A549 [15] was Active. Also, the inhibition result in data set [7] is on record as “Active; Comparable Activity With Nahs Observed”. Further, the Activity in data set [8] is 10 µM; in the data set with Caenorhabditis elegans [9], 10.5%; with BV-2 [2] (time 25 hrs), 23%; in data set [11] it was 100%; in the data set with Caenorhabditis elegans [13] it was “Active; Slight Effect Observed”; in the data set with A549 [14], roughly 50%. The Activity result with A549 [16] is recorded as “Non-toxic”. The viability at 1 µM in the data set on BV-2 [1] came out at 85.7%.
Consider `CCN(C)C(=O)Oc1cccc(NC(=O)c2ccc(N=C=S)cc2)c1`, for which, on Acetylcholinesterase, it took 510 nM to reach half-maximal inhibition (IC50). In addition, the outcome in the data set with BV-2 [3] was inactive. Further, the Activity in the data set with BV-2 [2] (time 25 hrs) stood at 10%.

The record behind these values is ChEMBL document CHEMBL6087455 (Eur J Med Chem, 2025).
